In ChEMBL document CHEMBL1148086, “Isolation of the furan fatty acid, (8Z,11Z,14Z,17Z)-3,6-epoxyeicos-3,5,8,11,14,17-hexenoic acid from the New Zealand sponge Hymeniacidon hauraki” (J Nat Prod, 1994) one finds IC50 and Activity data, which are given here for two molecules.

≈ marks a conversion by molar mass, not a printed value. Calls of active or inactive are those of the source. The rule behind the calls is not given here.

For data set [1], the system named is P388. Kind of data set: Cytotoxicity against mouse P388 cells after 48 hrs by SRB assay. Type of data set: functional, cell-based. A general note: Sulforhodamine B stains cellular protein and so reports cell mass.
Data set [2] deals with Human alphaherpesvirus 1. The data set is described as follows: Antiviral activity against Herpes simplex virus type 1 in african green monkey BSC1 cells after 24 hrs. In kind it is functional, organism-based.
For data set [3], the system named is Poliovirus 1. The data set is described as follows: Antiviral activity against Polio virus type 1 in african green monkey BSC1 cells after 24 hrs. In kind it is functional, organism-based.
The nature of data set [4]: Cytotoxicity against african green monkey BSC1 cells after 24 hrs. Type of data set: cell-based. The note with it: chlorocebus aethiops, bsc-1, 24 h.

For `CC/C=C\C/C=C\C/C=C\C/C=C\Cc1ccc(CC(=O)OC)o1`, the IC50 entry in data set [1] (p388), in data set [2] (bsc-1) and in data set [3] (bsc-1) was “Not Active” each time. Moreover, the Activity entry in data set [4] is on record as “Not Active”.

With `CC/C=C\C/C=C\C/C=C\C/C=C\Cc1ccc(CC(=O)O)o1`, the IC50 (as a rule, the concentration at which inhibition is half-maximal) in data set [1] (Mus musculus, P388, 48 h, read-out: IC50) stood at 13.4 µg/mL (≈ 42.6 µM). In addition, the result in data set [2] (BSC-1) and in data set [3] (BSC-1) was Active. In addition, in data set [4], the Activity stood at 2 mm.
